In patent publication US20100261618A1, “Identification of genes implicated in the virulence of streptococcus agalactiae” (priority 2006, published 2010) one finds IC50 and CMI data, which are given here for 4 molecules.

One assay concerns the target GBS 0307 (Streptococcus agalactiae, UniProt Q8E1N5, T550A). As to the kind of experiment: biochemical.
Another assay concerns the target T1, GBS 0582 (Streptococcus agalactiae, UniProt Q8E126).
T1 sequence (Q8E126 1-311): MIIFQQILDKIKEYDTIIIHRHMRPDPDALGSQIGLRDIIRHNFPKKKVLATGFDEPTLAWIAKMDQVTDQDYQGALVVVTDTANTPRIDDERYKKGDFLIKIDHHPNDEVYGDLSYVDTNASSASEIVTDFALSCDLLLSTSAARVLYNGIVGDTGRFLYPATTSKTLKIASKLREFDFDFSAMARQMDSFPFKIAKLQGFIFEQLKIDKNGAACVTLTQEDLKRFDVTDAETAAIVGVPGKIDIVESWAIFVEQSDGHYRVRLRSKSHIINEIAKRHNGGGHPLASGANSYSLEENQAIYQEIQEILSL
Kind of assay: biochemical. Further details: species or system S. agalactiae.

The subject of assay [1] is S. agalactiae NEM316 wild type strain. As to the kind of experiment: Sensitivity to colistin (MIC) of the wild type strain.
Method: Screening for sensitivity to cationic peptide colistin and cell wall defect of the mutant library. The S. agalactiae mutants were grown TH-Kn in 96-wells microplates over-night. Bacteria were then diluted to 1:1000 and each dilution was dispatched into two microplates. In one microplate 50 μl of TH was added, whereas 50 μl of 512 μg/ml colistin (Sigma) or 2 μg/ml novobiocin (Sigma) was added in the other thus obtaining final concentrations of 256 μg/ml and 1 μg/ml, respectively. Microplates were incubated overnight at 37° C. OD600 of microplates was read on a Multiskan Ex apparatus (Thermo).

Like-named read-outs stand apart in the source and are kept apart here.

Sequence of GBS 0307 (Q8E1N5 whole entry T550A): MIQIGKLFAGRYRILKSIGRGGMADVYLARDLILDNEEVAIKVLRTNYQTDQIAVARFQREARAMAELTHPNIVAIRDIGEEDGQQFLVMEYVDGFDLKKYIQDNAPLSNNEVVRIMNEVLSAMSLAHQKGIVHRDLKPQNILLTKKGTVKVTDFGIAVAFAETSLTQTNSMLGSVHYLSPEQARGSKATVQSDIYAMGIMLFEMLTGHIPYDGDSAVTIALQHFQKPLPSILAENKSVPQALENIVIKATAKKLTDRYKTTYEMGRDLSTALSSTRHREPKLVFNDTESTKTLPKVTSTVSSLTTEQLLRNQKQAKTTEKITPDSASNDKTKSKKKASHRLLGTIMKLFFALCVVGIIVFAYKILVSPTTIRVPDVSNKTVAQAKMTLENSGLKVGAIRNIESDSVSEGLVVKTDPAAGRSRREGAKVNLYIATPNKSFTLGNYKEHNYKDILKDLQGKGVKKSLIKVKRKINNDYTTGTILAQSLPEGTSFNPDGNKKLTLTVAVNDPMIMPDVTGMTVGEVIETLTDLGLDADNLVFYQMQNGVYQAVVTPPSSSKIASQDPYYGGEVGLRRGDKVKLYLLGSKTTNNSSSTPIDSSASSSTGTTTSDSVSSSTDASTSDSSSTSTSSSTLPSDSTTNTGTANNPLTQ

As to `CN[C@@H]1C[C@H]2O[C@@](C)([C@@H]1OC)n1c3ccccc3c3c4c(c5c6ccccc6n2c5c31)C(=O)NC4` [Staurosporine], the IC50 at GBS 0307 came to 0.023 ± 0.008 µM.
As to `Nc1ncnc2c1ncn2[C@@H]1O[C@H](COP(=O)(O)OP(=O)(O)O)[C@@H](O)[C@H]1O` [ADP], the IC50 at GBS 0582 (read-out: IC50) was 405 µM.
Regarding `Nc1ncnc2c1ncn2[C@@H]1O[C@H](COP(=O)(O)O)[C@@H](O)[C@H]1O` [AMP, Adenosine monophosphate], on GBS 0582, the IC50 worked out at 235 ± 45 µM.
For colistin, the CMI in assay [1] was ≤ 1024 µg/mL.
